Results published in patent publication US10202339B2, “Therapeutic compounds and compositions” (AGIOS PHARMACEUTICALS, INC., priority 2012, dated 2019).

Biological target: IDH2 R140Q (Homo sapiens (Human), UniProt P48735, R140Q)
Test: IDH2 R140Q enzymatic cofactor depletion assay (diaphorase/resazurin)
Assay type: biochemical
Conditions: IDH2 R140Q enzyme, one hour preincubation with compound, one hour reaction; read-out: Enz R140Q
How it was run: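 Enzyme preincubated with compound 1 h at room temperature, then reaction started with 50 μM NADPH and 6.3 mM α-KG and run 1 h at room temperature. Remaining NADPH measured by diaphorase (36 μg/ml)/resazurin (60 μM) stop mix, fluorescence read at Ex544/Em590 after 1 min.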

Sequence of IDH2 R140Q (P48735 40-452 R140Q): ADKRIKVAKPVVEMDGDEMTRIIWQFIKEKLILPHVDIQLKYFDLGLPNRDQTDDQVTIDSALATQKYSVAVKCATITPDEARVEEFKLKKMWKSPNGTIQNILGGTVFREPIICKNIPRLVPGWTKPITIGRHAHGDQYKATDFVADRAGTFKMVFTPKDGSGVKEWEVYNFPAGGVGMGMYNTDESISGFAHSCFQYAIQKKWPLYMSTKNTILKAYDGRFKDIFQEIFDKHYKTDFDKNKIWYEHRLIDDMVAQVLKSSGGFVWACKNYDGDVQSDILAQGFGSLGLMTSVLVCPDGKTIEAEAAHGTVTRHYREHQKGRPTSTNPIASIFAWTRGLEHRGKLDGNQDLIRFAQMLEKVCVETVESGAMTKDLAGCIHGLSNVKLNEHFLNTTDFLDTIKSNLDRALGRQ

IC50 [nM] | Compound
1000 to 10000 | Cc1nccn1-c1ccc(S(=O)(=O)Nc2ccccc2)cc1NC(=O)Nc1cccc(C(F)(F)F)c1 [Compound 343]
1000 to 10000 | O=C(Nc1cccc(C(F)(F)F)c1)Nc1cc(S(=O)(=O)Nc2ccccc2)ccc1-n1cccn1 [Compound 344]
100 to 1000 | O=C(Nc1cccc(C(F)(F)F)c1)Nc1cc(S(=O)(=O)NC2CC2)ccc1-n1ccnc1 [Compound 345, N-cyclopropyl-4-(1H-imidazol-1-yl)-3-(3-(3-(trifluoromethyl)phenyl)ureido)benzenesulfonamide]
1000 to 10000 | O=C(Nc1cccc(C(F)(F)F)c1)Nc1cc(S(=O)(=O)N2CCOCC2)ccc1-n1ccnc1 [Compound 346]
1000 to 10000 | CC(C)N(C)c1ccc(S(=O)(=O)Nc2ccccc2)cc1NC(=O)Nc1cccc(C(F)(F)F)c1 [Compound 347]
1000 to 10000 | O=C(Nc1cccc(C(F)(F)F)c1)Nc1cc(S(=O)(=O)NC2CC2)ccc1N1CCOCC1 [Compound 348, N-cyclopropyl-4-morpholino-3-(3-(3-(trifluoromethyl)phenyl)ureido)benzenesulfonamide]
100 to 1000 | O=C(Nc1cccc(C(F)(F)F)c1)Nc1cc(S(=O)(=O)NC2CC2)ccc1N1CCCOCC1 [Compound 349, N-cyclopropyl-4-(1,4-oxazepan-4-yl)-3-(3-(3-(trifluoromethyl)phenyl)ureido)benzenesulfonamide]
1000 to 10000 | O=C(Nc1cccc(C(F)(F)F)c1)Nc1cc(S(=O)(=O)N2CCOCC2)ccc1N1CCOCC1 [Compound 350]
100 to 1000 | Cc1ccc(NC(=O)Nc2c(Cl)cccc2Cl)cc1S(=O)(=O)Nc1ccc(Cl)cc1 [Compound 352]
100 to 1000 | O=C(Nc1cccc(C(F)(F)F)c1)Nc1cc(S(=O)(=O)Nc2ccccc2)ccc1-n1ccnc1 [Compound 354]
100 to 1000 | O=C(Nc1cccc(C(F)(F)F)c1)Nc1cc(S(=O)(=O)NC2CC2)cnc1-n1ccnc1 [Compound 355]
1000 to 10000 | O=C(Nc1cccc(C(F)(F)F)c1)Nc1cc(S(=O)(=O)N2CCOCC2)cnc1N1CCOCC1 [Compound 356]
1000 to 10000 | O=C(Nc1cccc(C(F)(F)F)c1)Nc1cc(S(=O)(=O)NC2CC2)cnc1N1CCOCC1 [Compound 357]
100 to 1000 | O=C(Nc1cccc(C(F)(F)F)c1)Nc1cc(S(=O)(=O)NC2CC2)cnc1N1CCCOCC1 [Compound 358]
100 to 1000 | O=C(Nc1cccc(C(F)(F)F)c1)Nc1cc(S(=O)(=O)Nc2ccccc2)ccc1-c1nccs1 [Compound 359]

Biological target: IDH1 R132H (Homo sapiens (Human), UniProt O75874, R132H)
Test: In vitro assay for IDH1m (R132H) inhibitors, NADPH depletion with resazurin/resorufin detection
Assay type: biochemical
Conditions: IDH1 R132H enzyme, 50 minutes at room temperature; read-out: IDH R132H IC50
Description: Assays were conducted in a volume of 76 μl assay buffer (150 mM NaCl, 10 mM MgCl2, 20 mM Tris pH 7.5, 0.03% bovine serum albumin) as follows in a standard 384-well plate: To 25 ul of substrate mix (8 uM NADPH, 2 mM aKG), 1 μl of test compound was added in DMSO. The plate was centrifuged briefly, and then 25 μl of enzyme mix was added (0.2 μg/ml IDH1 R132H) followed by a brief centrifugation and shake at 100 RPM. The reaction was incubated for 50 minutes at room temperature, then 25 μl of detection mix (30 μM resazurin, […]) was added and the mixture further incubated for 5 minutes at room temperature. The conversion of resazurin to resorufin was detected by fluorescent spectroscopy at Ex544 Em590 c/o 590.
Representative compounds of formula (I) set forth in Tables 1 and 2 were tested in this assay and the results are set forth below in Table 4.

Sequence of IDH1 R132H (O75874 whole entry R132H): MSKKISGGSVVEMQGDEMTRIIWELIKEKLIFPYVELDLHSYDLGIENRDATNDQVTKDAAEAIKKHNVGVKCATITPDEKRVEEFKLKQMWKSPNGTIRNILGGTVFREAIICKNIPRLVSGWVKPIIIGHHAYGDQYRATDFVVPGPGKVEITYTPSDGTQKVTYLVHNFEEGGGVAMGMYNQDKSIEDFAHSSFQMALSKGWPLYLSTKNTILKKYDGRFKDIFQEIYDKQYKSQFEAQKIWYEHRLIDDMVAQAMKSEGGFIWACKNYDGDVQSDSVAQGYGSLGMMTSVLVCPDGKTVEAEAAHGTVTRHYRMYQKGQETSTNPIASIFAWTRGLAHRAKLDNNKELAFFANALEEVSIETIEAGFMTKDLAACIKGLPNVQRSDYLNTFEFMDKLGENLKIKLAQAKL

IC50 [µM] | Compound
1 to 10 | Cc1ccc(NC(=O)Nc2ccc(Cl)cc2)cc1S(=O)(=O)Nc1ccccc1 [Compound 205]
1 to 10 | Cc1ccc(NC(=O)Nc2cccc(C(F)(F)F)c2)cc1S(=O)(=O)Nc1ccccc1 [Compound 206, 2-methyl-N-phenyl-5-(3-(3-(trifluoromethyl)phenyl)ureido)benzenesulfonamide]
1 to 10 | Cc1ccc(NC(=O)Nc2ccc(C(F)(F)F)cc2)cc1S(=O)(=O)Nc1ccccc1 [Compound 207, 2-methyl-N-phenyl-5-(3-(4-(trifluoromethyl)phenyl)ureido)benzenesulfonamide]
1 to 10 | Cc1ccc(NC(=O)Nc2ccc(OC(F)(F)F)cc2)cc1S(=O)(=O)Nc1ccccc1 [Compound 208]
1 to 10 | Cc1ccc(NC(=O)Nc2ccc(F)c(Cl)c2)cc1S(=O)(=O)Nc1ccccc1 [Compound 209]
1 to 10 | Cc1cc(C)cc(NC(=O)Nc2ccc(C)c(S(=O)(=O)Nc3ccccc3)c2)c1 [Compound 210]
1 to 10 | C#Cc1cccc(NC(=O)Nc2ccc(C)c(S(=O)(=O)Nc3ccccc3)c2)c1 [Compound 211]
1 to 10 | Cc1ccc(NC(=O)Nc2cccc(Oc3ccccc3)c2)cc1S(=O)(=O)Nc1ccccc1 [Compound 212]
1 to 10 | Cc1ccc(NC(=O)Nc2ccccc2)cc1S(=O)(=O)Nc1ccc(Cl)cc1 [Compound 213]
1 to 10 | Cc1ccc(NC(=O)Nc2ccccc2Cl)cc1S(=O)(=O)Nc1ccc(Cl)cc1 [Compound 214]
1 to 10 | Cc1ccc(NC(=O)Nc2cccc(Cl)c2)cc1S(=O)(=O)Nc1ccc(Cl)cc1 [Compound 215]
1 to 10 | Cc1ccc(NC(=O)Nc2ccccc2Br)cc1S(=O)(=O)Nc1ccc(Cl)cc1 [Compound 216]
1 to 10 | Cc1ccc(NC(=O)Nc2ccc(Br)cc2)cc1S(=O)(=O)Nc1ccc(Cl)cc1 [Compound 217]
1 to 10 | Cc1ccc(NC(=O)Nc2ccccc2F)cc1S(=O)(=O)Nc1ccc(Cl)cc1 [Compound 218]
1 to 10 | Cc1ccc(NC(=O)Nc2ccc(F)cc2)cc1S(=O)(=O)Nc1ccc(Cl)cc1 [Compound 219]
1 to 10 | Cc1ccc(NC(=O)Nc2ccc(I)cc2)cc1S(=O)(=O)Nc1ccc(Cl)cc1 [Compound 220]
1 to 10 | Cc1ccc(NC(=O)Nc2cccc(C(F)(F)F)c2)cc1S(=O)(=O)Nc1ccc(Cl)cc1 [Compound 221, N-(4-chlorophenyl)-2-methyl-5-(3-(3(trifluoromethyl)phenyl)ureido)benzenesulfonamide]
1 to 10 | Cc1ccc(NC(=O)Nc2ccc(C(F)(F)F)cc2)cc1S(=O)(=O)Nc1ccc(Cl)cc1 [Compound 222, N-(4-chlorophenyl)-2-methyl-5-(3-(4-(trifluoromethyl)phenyl)ureido)benzenesulfonamide]
1 to 10 | Cc1ccc(NC(=O)Nc2ccccc2OC(F)(F)F)cc1S(=O)(=O)Nc1ccc(Cl)cc1 [Compound 224]
1 to 10 | Cc1ccc(NC(=O)Nc2ccc(OC(F)(F)F)cc2)cc1S(=O)(=O)Nc1ccc(Cl)cc1 [Compound 225, N-(4-chlorophenyl)-2-methyl-5-(3-(4-(trifluoromethoxy)phenyl)ureido)benzenesulfonamide]
1 to 10 | Cc1ccc(NC(=O)Nc2ccc(Br)cc2Cl)cc1S(=O)(=O)Nc1ccc(Cl)cc1 [Compound 227]
1 to 10 | Cc1ccc(NC(=O)Nc2ccc(F)c(Cl)c2)cc1S(=O)(=O)Nc1ccc(Cl)cc1 [Compound 228]
1 to 10 | Cc1ccc(NC(=O)Nc2ccc(F)cc2F)cc1S(=O)(=O)Nc1ccc(Cl)cc1 [Compound 229]
1 to 10 | Cc1ccc(NC(=O)Nc2ccc(F)c(F)c2)cc1S(=O)(=O)Nc1ccc(Cl)cc1 [Compound 230]

IC50 [µM] | Compound
1 to 10 | Cc1ccc(NC(=O)Nc2ccc(C(F)(F)F)cc2Cl)cc1S(=O)(=O)Nc1ccc(Cl)cc1 [Compound 231]
1 to 10 | Cc1ccc(NC(=O)Nc2ccc(Br)cc2OC(F)(F)F)cc1S(=O)(=O)Nc1ccc(Cl)cc1 [Compound 232]
1 to 10 | Cc1ccc(NC(=O)Nc2cc(C(F)(F)F)ccc2F)cc1S(=O)(=O)Nc1ccc(Cl)cc1 [Compound 233]
1 to 10 | Cc1ccc(NC(=O)Nc2c(C)cccc2Cl)cc1S(=O)(=O)Nc1ccc(Cl)cc1 [Compound 234]
1 to 10 | Cc1ccc(NC(=O)Nc2ccc(C)c(S(=O)(=O)Nc3ccc(Cl)cc3)c2)cc1Cl [Compound 235]
1 to 10 | Cc1cc(Cl)ccc1NC(=O)Nc1ccc(C)c(S(=O)(=O)Nc2ccc(Cl)cc2)c1 [Compound 236]
1 to 10 | Cc1cc(NC(=O)Nc2ccc(C)c(S(=O)(=O)Nc3ccc(Cl)cc3)c2)ccc1Br [Compound 237]
1 to 10 | Cc1cc(Br)ccc1NC(=O)Nc1ccc(C)c(S(=O)(=O)Nc2ccc(Cl)cc2)c1 [Compound 238]
1 to 10 | Cc1ccc(NC(=O)Nc2c(C)cc(Br)cc2C)cc1S(=O)(=O)Nc1ccc(Cl)cc1 [Compound 239]
1 to 10 | Cc1ccc(F)c(NC(=O)Nc2ccc(C)c(S(=O)(=O)Nc3ccc(Cl)cc3)c2)c1 [Compound 240]
1 to 10 | Cc1ccc(F)cc1NC(=O)Nc1ccc(C)c(S(=O)(=O)Nc2ccc(Cl)cc2)c1 [Compound 241]
1 to 10 | Cc1ccc(NC(=O)Nc2ccc(Cl)c([N+](=O)[O-])c2)cc1S(=O)(=O)Nc1ccc(Cl)cc1 [Compound 242]
1 to 10 | Cc1ccc(NC(=O)Nc2cc(Cl)ccc2[N+](=O)[O-])cc1S(=O)(=O)Nc1ccc(Cl)cc1 [Compound 243]
1 to 10 | Cc1ccc(NC(=O)Nc2ccc([N+](=O)[O-])cc2Cl)cc1S(=O)(=O)Nc1ccc(Cl)cc1 [Compound 244]
1 to 10 | Cc1ccc(NC(=O)Nc2ccc(F)cc2[N+](=O)[O-])cc1S(=O)(=O)Nc1ccc(Cl)cc1 [Compound 245]
1 to 10 | Cc1ccc(NC(=O)Nc2cc(Cl)c(Cl)cc2Cl)cc1S(=O)(=O)Nc1ccc(Cl)cc1 [Compound 246]
1 to 10 | Cc1ccc(NC(=O)Nc2c(Cl)cc(F)cc2Br)cc1S(=O)(=O)Nc1ccc(Cl)cc1 [Compound 247]
1 to 10 | Cc1ccc(NC(=O)Nc2ccc(F)c(F)c2F)cc1S(=O)(=O)Nc1ccc(Cl)cc1 [Compound 248]
1 to 10 | Cc1cccc(NC(=O)Nc2ccc(C)c(S(=O)(=O)Nc3ccc(Cl)cc3)c2)c1 [Compound 249]
1 to 10 | CCc1ccccc1NC(=O)Nc1ccc(C)c(S(=O)(=O)Nc2ccc(Cl)cc2)c1 [Compound 250]
1 to 10 | CCc1cccc(NC(=O)Nc2ccc(C)c(S(=O)(=O)Nc3ccc(Cl)cc3)c2)c1 [Compound 251]
1 to 10 | CCc1ccc(NC(=O)Nc2ccc(C)c(S(=O)(=O)Nc3ccc(Cl)cc3)c2)cc1 [Compound 252]
1 to 10 | CCCCc1ccc(NC(=O)Nc2ccc(C)c(S(=O)(=O)Nc3ccc(Cl)cc3)c2)cc1 [Compound 253]
